“Also recorded” adds a separate entry of the source. Where two headings read alike, the source gives them in different places. Positions of bridges follow the written chain, without caps; N, C: chain ends. No end group written: not given here.
Key:
[1] = tested on: adenylyl cyclase of ROS 17/2 cells; assay type: cell-based, rat
Excerpt: Adenylyl cyclase activities of 4- to 5-day cultures of ROS 17/2 cells in 24-well plates were estimated from the rate of formation of [^3 H]-cAMF from the cellular ATP pool, which had been labelled with [^3 H]-adenine before exposure to hPTH or its analogues in accordance with Jouishomme, H. Whitfield, J. F.; Gagnon, L.; Maclean, S.; Isaacs, R.; Chakravarthy, B.; Durkin, J.; Neugebauer, W.; Willick, G.; Rixon, R. H. Further Definition of the Protein Kinase C Activation Domain of the Parathyroid Hormone. J. Bone Miner. Res. 1994, 9, 943-949.

ovariectomized rat model = settings: ovariectomized rats, literature; cited from earlier work
[2] = tested on: ovariectomized (OVX) rats; assay: Growth of trabeculae in the distal femurs of ovariectomized (OVX) rats, injections week 9 to 15 after OVX; assay type: in vivo; settings: 5 nmoles/100 g of body weight s.c. daily, FIG. 8, in words
Excerpt: Rats were OVXed (OVX) or sham-OVXed (sham) and given daily subcutaneous injections of vehicle between the end of the 9th week and the end of the 15th week after OVX. Injection quantities were 5 nmoles/100 g of body weight. OVXed rats received daily subcutaneous injections of: vehicle (OVX), hPTH(1-31)NH2, 5 nmol (linear), [Leu^27 ]cyclo(Glu^22 -Lys^26)hPTH(1-28)NH2, 5 nmol (cyclic), or [Glu^17,Leu^27]cyclo(Lys^13 -Glu^17,Glu^22 Lys^26)hPTH(1-31)NH2, 5nmol(double cyclic). The femurs were demineralized and stained with Sanderson's rapid bone stain. […] This improvement is not correlated with their relative AC-stimulating activities, but likely results from greater stability to proteolytic attack and greater ability to be transported from the site of injection.

[3] = ROS 17/2 cells, concentration required to obtain half-maximal activity

Molecule: SVSEIQLMHNLGKHLNSMERVEWLRKKL-NH2 [hPTH(1-28)NH2, reference compound]
- AC-Stimulation (ED50%, nM) [1]: 24 nM

Molecule: SVSEIQLMHNLGKHLNSMERVEWLRKKLQ-NH2 [hPTH(1-29)NH2, reference compound]
- AC-Stimulation (ED50%, nM) [1]: 24 nM

Molecule: Ser Val Ser Glu Ile Gln Leu Met His Asn Leu Gly Lys His Leu Asn Ser Met Glu Arg Val Glu Trp Leu Arg Lys Lys Leu Gin Asp Val-NH2 (SVSEIQLMHNLGKHLNSMERVEWLRKKLQDV-NH2) [hPTH-(1-31)-NH2, linear human parathyroid hormone fragment 1-31 amide]
- anabolic activity / restoration of bone loss (ovariectomized rat model): fully active in the restoration of bone loss

Molecule: [Glu^17, Leu^27 ]cyclo(Lys^13 -Glu^17, Glu^22 -Lys^26)-hPTH-(1-31)-NH2 (SVSEIQLMHNLGKHLNEMERVEWLRKLLQDV-NH2; lactam 13-17, 22-26; N-terminus assumed; SMILES CC[C@H](C)[C@H](NC(=O)[C@H](CCC(=O)O)NC(=O)[C@H](CO)NC(=O)[C@@H](NC(=O)[C@@H](N)CO)C(C)C)C(=O)N[C@@H](CCC(N)=O)C(=O)N[C@@H](CC(C)C)C(=O)N[C@@H](CCSC)C(=O)N[C@@H](Cc1c[nH]cn1)C(=O)N[C@@H](CC(N)=O)C(=O)N[C@@H](CC(C)C)C(=O)NCC(=O)N[C@H]1CCCCNC(=O)CC[C@@H](C(=O)N[C@@H](CCSC)C(=O)N[C@@H](CCC(=O)O)C(=O)N[C@@H](CCCNC(=N)N)C(=O)N[C@H](C(=O)N[C@H]2CCC(=O)NCCCC[C@@H](C(=O)N[C@@H](CC(C)C)C(=O)N[C@@H](CC(C)C)C(=O)N[C@@H](CCC(N)=O)C(=O)N[C@@H](CC(=O)O)C(=O)N[C@H](C(N)=O)C(C)C)NC(=O)[C@H](CCCNC(=N)N)NC(=O)[C@H](CC(C)C)NC(=O)[C@H](Cc3c[nH]c4ccccc34)NC2=O)C(C)C)NC(=O)[C@H](CC(N)=O)NC(=O)[C@H](CC(C)C)NC(=O)[C@H](Cc2c[nH]cn2)NC1=O) [double cyclic (13-17 and 22-26 lactams) hPTH 1-31 amide analogue]
- increasing the thickness of the remaining trabeculae [2]: better than its monocyclic counterpart; also recorded: significantly better than the linear molecule
- AC-Stimulation (ED50%, nM) [1, 3]: 13.2 nM

Molecule: [Leu^27 ]cyclo(Glu^22 -Lys^26)-hPTH-(1-28)-NH2 (SVSEIQLMHNLGKHLNSMERVEWLRKLL-NH2; lactam 22-26; N-terminus assumed; SMILES CC[C@H](C)[C@H](NC(=O)[C@H](CCC(=O)O)NC(=O)[C@H](CO)NC(=O)[C@@H](NC(=O)[C@@H](N)CO)C(C)C)C(=O)N[C@@H](CCC(N)=O)C(=O)N[C@@H](CC(C)C)C(=O)N[C@@H](CCSC)C(=O)N[C@@H](Cc1c[nH]cn1)C(=O)N[C@@H](CC(N)=O)C(=O)N[C@@H](CC(C)C)C(=O)NCC(=O)N[C@@H](CCCCN)C(=O)N[C@@H](Cc1c[nH]cn1)C(=O)N[C@@H](CC(C)C)C(=O)N[C@@H](CC(N)=O)C(=O)N[C@@H](CO)C(=O)N[C@@H](CCSC)C(=O)N[C@@H](CCC(=O)O)C(=O)N[C@@H](CCCNC(=N)N)C(=O)N[C@H](C(=O)N[C@H]1CCC(=O)NCCCC[C@@H](C(=O)N[C@@H](CC(C)C)C(=O)N[C@@H](CC(C)C)C(N)=O)NC(=O)[C@H](CCCNC(=N)N)NC(=O)[C@H](CC(C)C)NC(=O)[C@H](Cc2c[nH]c3ccccc23)NC1=O)C(C)C) [[Leu^27]c(Glu^22 -Lys^26)hPTH(1-28)NH2, 22-26 lactam cyclic analogue of human parathyroid hormone 1-28 amide with Leu27]
- AC-Stimulation (ED50%, nM) [1, 3]: 9.6 nM

Molecule: [Leu^27 ]cyclo(Glu^22 -Lys^26)-hPTH-(1-29)-NH2 (SVSEIQLMHNLGKHLNSMERVEWLRKLLQ-NH2; lactam 22-26; N-terminus assumed; SMILES CC[C@H](C)[C@H](NC(=O)[C@H](CCC(=O)O)NC(=O)[C@H](CO)NC(=O)[C@@H](NC(=O)[C@@H](N)CO)C(C)C)C(=O)N[C@@H](CCC(N)=O)C(=O)N[C@@H](CC(C)C)C(=O)N[C@@H](CCSC)C(=O)N[C@@H](Cc1c[nH]cn1)C(=O)N[C@@H](CC(N)=O)C(=O)N[C@@H](CC(C)C)C(=O)NCC(=O)N[C@@H](CCCCN)C(=O)N[C@@H](Cc1c[nH]cn1)C(=O)N[C@@H](CC(C)C)C(=O)N[C@@H](CC(N)=O)C(=O)N[C@@H](CO)C(=O)N[C@@H](CCSC)C(=O)N[C@@H](CCC(=O)O)C(=O)N[C@@H](CCCNC(=N)N)C(=O)N[C@H](C(=O)N[C@H]1CCC(=O)NCCCC[C@@H](C(=O)N[C@@H](CC(C)C)C(=O)N[C@@H](CC(C)C)C(=O)N[C@@H](CCC(N)=O)C(N)=O)NC(=O)[C@H](CCCNC(=N)N)NC(=O)[C@H](CC(C)C)NC(=O)[C@H](Cc2c[nH]c3ccccc23)NC1=O)C(C)C) [[Leu^27]c(Glu^22 -Lys^26)hPTH(1-29)NH2, 22-26 lactam cyclic analogue of human parathyroid hormone 1-29 amide with Leu27]
- AC-Stimulation (ED50%, nM) [1, 3]: 8.4 nM

Molecule: hPTH(1-30)NH2 (SVSEIQLMHNLGKHLNSMERVEWLRKKLQD-NH2; UniProt P01270 32-61, looked up, fragment) [linear human parathyroid hormone fragment 1-30 amide]
- anabolic activity / restoration of bone loss (ovariectomized rat model): only with much higher doses than used with the (1-31) analogue

Molecule: SVSEIQLMHNLGKHLNSMERVEWLRKKL-NH2 [hPTH(1-28)NH2]
- AC-Stimulation (ED50%, nM) (PTH receptor): 24 nM

B1: [Leu^27]cyclo(Glu^22-Lys^26)-hPTH-(1-29)-NH2 (peptide)
peptide: SVSEIQLMHNLGKHLNSMERVEWLRKLLQ-NH2
modifications: lactam 22-26; N-terminus assumed
SMILES: CC[C@H](C)[C@H](NC(=O)[C@H](CCC(=O)O)NC(=O)[C@H](CO)NC(=O)[C@@H](NC(=O)[C@@H](N)CO)C(C)C)C(=O)N[C@@H](CCC(N)=O)C(=O)N[C@@H](CC(C)C)C(=O)N[C@@H](CCSC)C(=O)N[C@@H](Cc1c[nH]cn1)C(=O)N[C@@H](CC(N)=O)C(=O)N[C@@H](CC(C)C)C(=O)NCC(=O)N[C@@H](CCCCN)C(=O)N[C@@H](Cc1c[nH]cn1)C(=O)N[C@@H](CC(C)C)C(=O)N[C@@H](CC(N)=O)C(=O)N[C@@H](CO)C(=O)N[C@@H](CCSC)C(=O)N[C@@H](CCC(=O)O)C(=O)N[C@@H](CCCNC(=N)N)C(=O)N[C@H](C(=O)N[C@H]1CCC(=O)NCCCC[C@@H](C(=O)N[C@@H](CC(C)C)C(=O)N[C@@H](CC(C)C)C(=O)N[C@@H](CCC(N)=O)C(N)=O)NC(=O)[C@H](CCCNC(=N)N)NC(=O)[C@H](CC(C)C)NC(=O)[C@H](Cc2c[nH]c3ccccc23)NC1=O)C(C)C
- AC-Stimulation (ED50%, nM) (PTH receptor): 8.4 nM

B2: [Glu^17, Leu^27]cyclo(Lys^13-Glu^17, Glu^22-Lys^26)-hPTH-(1-31)-NH2 (peptide)
peptide: SVSEIQLMHNLGKHLNEMERVEWLRKLLQDV-NH2
modifications: lactam 13-17, 22-26; N-terminus assumed
SMILES: CC[C@H](C)[C@H](NC(=O)[C@H](CCC(=O)O)NC(=O)[C@H](CO)NC(=O)[C@@H](NC(=O)[C@@H](N)CO)C(C)C)C(=O)N[C@@H](CCC(N)=O)C(=O)N[C@@H](CC(C)C)C(=O)N[C@@H](CCSC)C(=O)N[C@@H](Cc1c[nH]cn1)C(=O)N[C@@H](CC(N)=O)C(=O)N[C@@H](CC(C)C)C(=O)NCC(=O)N[C@H]1CCCCNC(=O)CC[C@@H](C(=O)N[C@@H](CCSC)C(=O)N[C@@H](CCC(=O)O)C(=O)N[C@@H](CCCNC(=N)N)C(=O)N[C@H](C(=O)N[C@H]2CCC(=O)NCCCC[C@@H](C(=O)N[C@@H](CC(C)C)C(=O)N[C@@H](CC(C)C)C(=O)N[C@@H](CCC(N)=O)C(=O)N[C@@H](CC(=O)O)C(=O)N[C@H](C(N)=O)C(C)C)NC(=O)[C@H](CCCNC(=N)N)NC(=O)[C@H](CC(C)C)NC(=O)[C@H](Cc3c[nH]c4ccccc34)NC2=O)C(C)C)NC(=O)[C@H](CC(N)=O)NC(=O)[C@H](CC(C)C)NC(=O)[C@H](Cc2c[nH]cn2)NC1=O
- AC-Stimulation (ED50%, nM) (PTH receptor): 13.2 nM

B3: [Leu^27]cyclo(Glu^22-Lys^26)-hPTH-(1-28)-NH2 (peptide)
peptide: SVSEIQLMHNLGKHLNSMERVEWLRKLL-NH2
modifications: lactam 22-26; N-terminus assumed
SMILES: CC[C@H](C)[C@H](NC(=O)[C@H](CCC(=O)O)NC(=O)[C@H](CO)NC(=O)[C@@H](NC(=O)[C@@H](N)CO)C(C)C)C(=O)N[C@@H](CCC(N)=O)C(=O)N[C@@H](CC(C)C)C(=O)N[C@@H](CCSC)C(=O)N[C@@H](Cc1c[nH]cn1)C(=O)N[C@@H](CC(N)=O)C(=O)N[C@@H](CC(C)C)C(=O)NCC(=O)N[C@@H](CCCCN)C(=O)N[C@@H](Cc1c[nH]cn1)C(=O)N[C@@H](CC(C)C)C(=O)N[C@@H](CC(N)=O)C(=O)N[C@@H](CO)C(=O)N[C@@H](CCSC)C(=O)N[C@@H](CCC(=O)O)C(=O)N[C@@H](CCCNC(=N)N)C(=O)N[C@H](C(=O)N[C@H]1CCC(=O)NCCCC[C@@H](C(=O)N[C@@H](CC(C)C)C(=O)N[C@@H](CC(C)C)C(N)=O)NC(=O)[C@H](CCCNC(=N)N)NC(=O)[C@H](CC(C)C)NC(=O)[C@H](Cc2c[nH]c3ccccc23)NC1=O)C(C)C
- AC-Stimulation (ED50%, nM) (PTH receptor): 9.6 nM

Molecule: SVSEIQLMHNLGKHLNSMERVEWLRKKLQ-NH2 [hPTH(1-29)NH2]
- AC-Stimulation (ED50%, nM) (PTH receptor): 24 nM

— US6316410A, “Parathyroid hormone analogues for the treatment of osteoporosis” (National Research Council of Canada, priority 1999, dated 2001)
